Assay results published in patent US20260015350A1, “AZAQUINAZOLINE PAN-KRAS INHIBITORS” (Mirati Therapeutics, Inc., priority 2022, published 2026).

Columns and labels:
[1] = target: T1, KRas^G12D (Homo sapiens, UniProt P01116, G12D); experiment: KRas binding assay (TR-FRET tracer displacement), KRas G12D
T1 construct: Biotinylated KRas (corresponding to amino acids 1-169, produced at Accelegan Inc.); biotin (biotinylated); purchased Accelegan Inc

[2] = target: T2, KRas^G12V (Homo sapiens, UniProt P01116, G12V); experiment: KRas binding assay (TR-FRET tracer displacement), KRas G12V
T2 construct: Biotinylated KRas (corresponding to amino acids 1-169, produced at Accelegan Inc.); biotin (biotinylated); purchased Accelegan Inc

[3] = target: T3, KRas^G12R (Homo sapiens, UniProt P01116, G12R); experiment: KRas binding assay (TR-FRET tracer displacement), KRas G12R
T3 construct: Biotinylated KRas (corresponding to amino acids 1-169, produced at Accelegan Inc.); biotin (biotinylated); purchased Accelegan Inc

[4] = system: KRas-mediated phosphorylation of ERK in H727 cells; experiment: Inhibition of KRas-mediated phosphorylation of ERK (Cisbio HTRF pERK), H727 cells; assay type: cell-based; conditions: Homo sapiens; for IC50: NCI-H727, H727 cells, HTRF pERK
How it was run: (§1)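 Following a 3-hr exposure of cells to serially diluted compound (from 10 uM, 3-fold, 10 doses), cold lysis for 40 mins preceded a 2-hr room-temperature HTRF immunoassay for phosphorylated ERK.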

[5] = system: KRas-mediated phosphorylation of ERK in AsPC-1 cells; experiment: Inhibition of KRas-mediated phosphorylation of ERK (Cisbio HTRF pERK), AsPC-1 cells; assay type: cell-based; conditions: Homo sapiens; for IC50: ASPC1, AsPC-1 cells, HTRF pERK
How it was run: as §1

T3 sequence (P01116 1-169 isoform P01116-2 G12R): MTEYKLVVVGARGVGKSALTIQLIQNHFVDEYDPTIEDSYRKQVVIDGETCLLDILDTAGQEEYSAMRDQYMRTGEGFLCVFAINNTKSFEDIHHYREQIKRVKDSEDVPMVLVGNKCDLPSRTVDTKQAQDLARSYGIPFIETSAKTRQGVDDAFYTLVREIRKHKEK
T2 sequence (P01116 1-169 isoform P01116-2 G12V): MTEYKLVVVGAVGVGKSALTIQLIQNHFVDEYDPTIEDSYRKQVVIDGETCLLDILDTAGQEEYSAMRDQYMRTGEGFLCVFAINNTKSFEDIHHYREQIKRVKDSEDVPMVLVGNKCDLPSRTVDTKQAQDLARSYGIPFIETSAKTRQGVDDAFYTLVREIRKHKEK
T1 sequence (P01116 1-169 isoform P01116-2 G12D): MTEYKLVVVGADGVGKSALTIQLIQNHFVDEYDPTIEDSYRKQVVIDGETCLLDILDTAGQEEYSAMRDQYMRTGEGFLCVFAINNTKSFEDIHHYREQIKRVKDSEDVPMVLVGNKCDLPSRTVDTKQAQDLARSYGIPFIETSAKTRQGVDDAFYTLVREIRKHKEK

## CCc1c(F)ccc2cc(O)cc(-c3ncc4c(NCc5cc(C(=O)N(C)C)n([C@H]6C[C@H](O)C6)n5)nc(OC[C@@]56CCCN5C[C@H](F)C6)nc4c3F)c12 [Example 680, 3-(((7-(8-ethyl-7-fluoro-3-hydroxynaphthalen-1-yl)-8-fluoro-2-(((2R,7aS)-2-fluorohexahydro-1H-pyrrolizin-7a-yl)methoxy)pyrido[4,3-d]pyrimidin-4-yl)amino)methyl)-1-(trans-3-hydroxycyclobutyl)-N,N-dimethyl-1H-pyrazole-5-carboxamide]
[1]
  IC50: 473 nM
[2]
  IC50: 43 nM
[3]
  IC50: 234 nM
[4]
  IC50: > 10000 nM
[5]
  IC50: > 10000 nM

## CCc1c(F)ccc2cc(O)cc(-c3ncc4c(N5CCOCC(P(C)(C)=O)C5)nc(OC[C@@]56CCCN5C[C@H](F)C6)nc4c3F)c12 (stereo partly drawn) [Example 629, (4-(7-(8-ethyl-7-fluoro-3-hydroxynaphthalen-1-yl)-8-fluoro-2-(((2R,7aS)-2-fluorohexahydro-1H-pyrrolizin-7a-yl)methoxy)pyrido[4,3-d]pyrimidin-4-yl)-1,4-oxazepan-6-yl)dimethylphosphine oxide]
[1]
  IC50: 65 nM
[2]
  IC50: 15 nM
[3]
  IC50: 37 nM
[4]
  IC50: > 10000 nM
[5]
  IC50: > 10000 nM

## CCc1c(F)ccc2cc(O)cc(-c3ncc4c(N5Cc6n[nH]c(C(=O)N(C)C)c6C5)nc(OC[C@@]56CCCN5C[C@H](F)C6)nc4c3F)c12 [Example 635, 5-(7-(8-ethyl-7-fluoro-3-hydroxynaphthalen-1-yl)-8-fluoro-2-(((2R,7aS)-2-fluorotetrahydro-1H-pyrrolizin-7a(5H)-yl)methoxy)pyrido[4,3-d]pyrimidin-4-yl)-N,N-dimethyl-2,4,5,6-tetrahydropyrrolo[3,4-c]pyrazole-3-carboxamide]
[1]
  IC50: 1640 nM
[2]
  IC50: 454 nM
[3]
  IC50: 766 nM
[4]
  IC50: > 10000 nM
[5]
  IC50: > 10000 nM

## CCc1c(F)ccc2cc(O)cc(-c3ncc4c(N5C[C@@H]6[C@@H](C(N)=O)NC(=O)[C@@H]6C5)nc(OC[C@@]56CCCN5C[C@H](F)C6)nc4c3F)c12 [Example 622, (3aS,6aR)-5-(7-(8-ethyl-7-fluoro-3-hydroxynaphthalen-1-yl)-8-fluoro-2-(((2R,7aS)-2-fluorotetrahydro-1H-pyrrolizin-7a(5H)-yl)methoxy)pyrido[4,3-d]pyrimidin-4-yl)-3-oxooctahydropyrrolo[3,4-c]pyrrole-1-carboxamide]
[1]
  IC50: 377 nM
[2]
  IC50: 68 nM
[3]
  IC50: 139 nM
[4]
  IC50: > 10000 nM
[5]
  IC50: > 10000 nM

## CCc1c(F)ccc2cc(O)cc(-c3ncc4c(N5Cc6n[nH]c(C(N)=O)c6C5)nc(OC[C@@]56CCCN5C[C@H](F)C6)nc4c3F)c12 [Example 588, 5-(7-(8-ethyl-7-fluoro-3-hydroxynaphthalen-1-yl)-8-fluoro-2-(((2R,7aS)-2-fluorotetrahydro-1H-pyrrolizin-7a(5H)-yl)methoxy)pyrido[4,3-d]pyrimidin-4-yl)-2,4,5,6-tetrahydropyrrolo[3,4-c]pyrazole-3-carboxamide]
[1]
  IC50: 1780 nM
[2]
  IC50: 314 nM
[3]
  IC50: 621 nM
[4]
  IC50: > 10000 nM
[5]
  IC50: > 10000 nM

## CCc1c(F)ccc2cc(O)cc(-c3ncc4c(NCc5cn(C(=O)N(C)C)nc5N)nc(OC[C@@]56CCCN5C[C@H](F)C6)nc4c3F)c12 [Example 639, 3-amino-4-(((7-(8-ethyl-7-fluoro-3-hydroxynaphthalen-1-yl)-8-fluoro-2-(((2R,7aS)-2-fluorohexahydro-1H-pyrrolizin-7a-yl)methoxy)pyrido[4,3-d]pyrimidin-4-yl)amino)methyl)-N,N-dimethyl-1H-pyrazole-1-carboxamide]
[1]
  IC50: 13 nM
[2]
  IC50: 2 nM
[3]
  IC50: 2 nM
[4]
  IC50: 718 nM
[5]
  IC50: 1040 nM

## CCc1c(F)ccc2cc(O)cc(-c3ncc4c(N5CCCC6(CCS6(=O)=O)C5)nc(OC[C@@]56CCCN5C[C@H](F)C6)nc4c3F)c12 (stereo partly drawn) [Example 628, 6-(7-(8-ethyl-7-fluoro-3-hydroxynaphthalen-1-yl)-8-fluoro-2-(((2R,7aS)-2-fluorohexahydro-1H-pyrrolizin-7a-yl)methoxy)pyrido[4,3-d]pyrimidin-4-yl)-1-thia-6-azaspiro[3.5]nonane 1,1-dioxide]
[1]
  IC50: 78 nM
[2]
  IC50: 107 nM
[3]
  IC50: 180 nM
[4]
  IC50: 2810 nM
[5]
  IC50: 3260 nM

## CCc1c(F)ccc2cc(O)cc(-c3ncc4c(N5CCO[C@@H](CS(N)(=O)=O)C5)nc(OC[C@@]56CCCN5C[C@H](F)C6)nc4c3F)c12 [Example 636, 1-((R)-4-(7-(8-ethyl-7-fluoro-3-hydroxynaphthalen-1-yl)-8-fluoro-2-(((2R,7aS)-2-fluorotetrahydro-1H-pyrrolizin-7a(5H)-yl)methoxy)pyrido[4,3-d]pyrimidin-4-yl)morpholin-2-yl)methanesulfonamide]
[1]
  IC50: 10 nM
[2]
  IC50: 3 nM
[3]
  IC50: < 2 nM
[4]
  IC50: 1810 nM
[5]
  IC50: 4190 nM

## CCc1c(F)ccc2cc(O)cc(-c3ncc4c(N5CCC(Cc6cncn6C)C5)nc(OC[C@@]56CCCN5C[C@H](F)C6)nc4c3F)c12 (stereo partly drawn) [Example 829, 5-ethyl-6-fluoro-4-(8-fluoro-2-(((2R,7aS)-2-fluorotetrahydro-1H-pyrrolizin-7a(5H)-yl)methoxy)-4-(3-((1-methyl-1H-imidazol-5-yl)methyl)pyrrolidin-1-yl)pyrido[4,3-d]pyrimidin-7-yl)naphthalen-2-ol]
[1]
  IC50: 939 nM
[2]
  IC50: 195 nM
[3]
  IC50: 460 nM
[4]
  IC50: > 10000 nM
[5]
  IC50: > 10000 nM

## CCc1c(F)ccc2cc(O)cc(-c3ncc4c(SCc5cc(C(=O)N(C)C)nn5C)nc(OC[C@@]56CCCN5C[C@H](F)C6)nc4c3F)c12 [Example 653, 5-(((7-(8-ethyl-7-fluoro-3-hydroxynaphthalen-1-yl)-8-fluoro-2-(((2R,7aS)-2-fluorohexahydro-1H-pyrrolizin-7a-yl)methoxy)pyrido[4,3-d]pyrimidin-4-yl)thio)methyl)-N,N,1-trimethyl-1H-pyrazole-3-carboxamide]
[1]
  IC50: 123 nM
[2]
  IC50: 20 nM
[3]
  IC50: 16 nM
[4]
  IC50: > 10000 nM
[5]
  IC50: > 10000 nM

## CCc1c(F)ccc2cc(O)cc(-c3ncc4c(N5CCCC6(C5)NC(=O)NC6=O)nc(N5CC(C)(N)C5)nc4c3F)c12 (stereo not shown) [Example 531, 7-(2-(3-amino-3-methylazetidin-1-yl)-7-(8-ethyl-7-fluoro-3-hydroxynaphthalen-1-yl)-8-fluoropyrido[4,3-d]pyrimidin-4-yl)-1,3,7-triazaspiro[4.5]decane-2,4-dione]
[1]
  IC50: 5 nM
[2]
  IC50: < 2 nM
[3]
  IC50: < 2 nM
[4]
  IC50: > 10000 nM
[5]
  IC50: > 10000 nM

## CCc1c(F)ccc2cc(O)cc(-c3ncc4c(N5CC6CCC(CCC(=O)NC)(C6)C5)nc(OC[C@@]56CCCN5C[C@H](F)C6)nc4c3F)c12 (stereo partly drawn) [Example 909, 3-(3-(7-(8-ethyl-7-fluoro-3-hydroxynaphthalen-1-yl)-8-fluoro-2-(((2R,7aS)-2-fluorotetrahydro-1H-pyrrolizin-7a(5H)-yl)methoxy)pyrido[4,3-d]pyrimidin-4-yl)-3-azabicyclo[3.2.1]octan-1-yl)-N-methylpropanamide]
[1]
  IC50: 24 nM
[2]
  IC50: 7 nM
[3]
  IC50: 7 nM
[4]
  IC50: 1310 nM
[5]
  IC50: 5160 nM

## CCc1c(F)ccc2cc(O)cc(-c3ncc4c(N5CC6CCC(CCC(N)=O)(C6)C5)nc(OC[C@@]56CCCN5C[C@H](F)C6)nc4c3F)c12 (stereo partly drawn) [Example 910, 3-(3-(7-(8-ethyl-7-fluoro-3-hydroxynaphthalen-1-yl)-8-fluoro-2-(((2R,7aS)-2-fluorotetrahydro-1H-pyrrolizin-7a(5H)-yl)methoxy)pyrido[4,3-d]pyrimidin-4-yl)-3-azabicyclo[3.2.1]octan-1-yl)propanamide]
[1]
  IC50: 22 nM
[2]
  IC50: 8 nM
[3]
  IC50: 9 nM
[4]
  IC50: 1670 nM
[5]
  IC50: 8160 nM

## CCc1c(F)ccc2cc(O)cc(-c3ncc4c(NCc5cc(C(=O)N(C)C)nn5C5CCC5O)nc(OC[C@@]56CCCN5C[C@H](F)C6)nc4c3F)c12 (stereo partly drawn) [Example 677, 5-(((7-(8-ethyl-7-fluoro-3-hydroxynaphthalen-1-yl)-8-fluoro-2-(((2R,7aS)-2-fluorotetrahydro-1H-pyrrolizin-7a(5H)-yl)methoxy)pyrido[4,3-d]pyrimidin-4-yl)amino)methyl)-1-(2-hydroxycyclobutyl)-N,N-dimethyl-1H-pyrazole-3-carboxamide]
[1]
  IC50: 13 nM
[2]
  IC50: < 2 nM
[3]
  IC50: < 2 nM
[4]; NCI-H727, 3 h, single point, 100 nM compound, 3 hrs, H727 cells
  inhibition at 0.1 µM: 2%
[4]
  IC50: 4580 nM
[5]; ASPC1, 3 h, single point, 100 nM compound, 3 hrs, AsPC-1 cells
  inhibition at 0.1 µM: -8%

## CCc1c(F)ccc2cc(O)cc(-c3ncc4c(N[C@H](C)CN5CC(C)(O)C5)nc(OC[C@@]56CCCN5C[C@H](F)C6)nc4c3F)c12 [Example 577, 1-((R)-2-((7-(8-ethyl-7-fluoro-3-hydroxynaphthalen-1-yl)-8-fluoro-2-(((2R,7aS)-2-fluorohexahydro-1H-pyrrolizin-7a-yl)methoxy)pyrido[4,3-d]pyrimidin-4-yl)amino)propyl)-3-methylazetidin-3-ol]
[1]
  IC50: 29 nM
[2]
  IC50: 606 nM
[3]
  IC50: 727 nM
[4]
  IC50: > 10000 nM
[5]
  IC50: 8440 nM
